Data taken from patent US5804581A, “Inhibition of matrix metalloproteases by substituted phenalkyl compounds” (Bayer Corporation, priority 1997, dated 1998).
Read-outs that look alike come from different tables or passages of the source.

What was measured:
human colon tumor = conditions: intraperitoneally; orthotopic model in nude mice; cited from earlier work
[1] = system: human ovarian carcinoma xenografts; conditions: batimastat given intraperitoneally; cited from earlier work
[2] = fenbufen analogs, Child, et al.; cited from earlier work
[3] = target: T1, Human Recombinant Gelatinase B (MMP-9) (Homo sapiens, UniProt P14780); assay: P218 quenched fluorescence (microfluorometric profiling) assay, MMP-9; format: biochemical
T1 construct: made in house
Procedure: The assay was run with each invention compound and the three MMPs, Mmp-3, MMP-9 and MMP-2, analyzed in parallel, adapted as follows for a 96-well microtiter plate and a Hamilton AT® workstation. […] P218 is currently being produced BACHEM exclusively for Bayer. P218 has the structure: […] The enzyme was dialyzed against the same buffer to remove the APMA. Hamiltion Microlab AT Plus: The MMP-Profiling Assay is performed robotically on a Hamilton MicroLab AT Plus®. The Hamilton is programmed to: (1) serially dilute up to 11 potential inhibitors automatically from a 2.5 mM stock in 100% DMSO; (2) distribute substrate followed by inhibitor into a 96 well Cytofluor plate; and (3) add a single enzyme to the plate with mixing to start the reaction. Subsequent plates for each additional enzyme are prepared automatically by beginning the program at the substrate addition point, remixing the diluted inhibitors and beginning the reaction by addition of enzyme. In this way, all MMP assays were done using the same inhibitor dilutions. Millipore Cytofluor II. […] MMP Microfluorometric Profiling Assay. […] The Hamilton is programmed to serially dilute up to 11 compounds from a 2.5 mM stock (100% DMSO) to 10× the final compounds concentrations in the assay. Initially, the instrument delivers various amounts of microfluoromentric reaction buffer (MRB) to a 96 tube rack of 1 ml Marsh dilution tubes. The instrument then picks up 20 μl of inhibitor (2.5 mM) from the sample rack and mixes it with a buffer in row A of the Marsh rack, resulting in a 50 μM drug concentration. The inhibitors are then serially diluted to 10, 5, 1, 0.2, 0.05 and 0.01 μM. […] The instrument re-mixes and loads 14.5 μl of diluted compound from rows A to G in the Marsh rack to corresponding rows in the microtiter plate. (Row H represents the "background" row and 39.5 μl of MRB is delivered in placed of drug or enzyme). […] After addition and mixing of the enzyme, the plate is covered and incubated for 25 min. at 37° C. Additional enzymes are tested in the same manner by beginning the Hamilton program with the distribution of P218 substrate to the microtiter plate, followed by re-mixing and distribution of the drug from the same Marsh rack to the microtiter plate. The second (or third, etc.) MMP to be tested is then distributed from a reagent rack to the microtiter plate with mixing, prior to covering and incubation. This is repeated for all additional MMP's to be tested. IC50 and Ki Determination in Microfluorometric Assay: Data generated on the Cytofluor II is copied from an exported ".CSV" file to a master Excel spreadsheet. […] The percent inhibition is determination for each drug concentration by comparing the amount of hydrolysis (fluorescence units generated over 25 minutes of hydrolysis) of wells containing compound with the "enzyme only" wells in column 1. Following subtraction of the background the percent inhibition was calculated as: ((Control values-Treated values)/Control values)×100 Percent inhibitions were determined for inhibitor concentrations of 5, 1, 0.5, 0.1, 0.02, 0.005 and, 0.001 μM of drug. Linear regression analysis of percent inhibition versus log inhibitor concentration was used to obtain IC50 values.

[4] = target: T2, Human Recombinant Gelatinase A (MMP-2) (Homo sapiens, UniProt P08253); assay: P218 quenched fluorescence (microfluorometric profiling) assay, MMP-2; format: biochemical
T2 sequence (P08253 110-660): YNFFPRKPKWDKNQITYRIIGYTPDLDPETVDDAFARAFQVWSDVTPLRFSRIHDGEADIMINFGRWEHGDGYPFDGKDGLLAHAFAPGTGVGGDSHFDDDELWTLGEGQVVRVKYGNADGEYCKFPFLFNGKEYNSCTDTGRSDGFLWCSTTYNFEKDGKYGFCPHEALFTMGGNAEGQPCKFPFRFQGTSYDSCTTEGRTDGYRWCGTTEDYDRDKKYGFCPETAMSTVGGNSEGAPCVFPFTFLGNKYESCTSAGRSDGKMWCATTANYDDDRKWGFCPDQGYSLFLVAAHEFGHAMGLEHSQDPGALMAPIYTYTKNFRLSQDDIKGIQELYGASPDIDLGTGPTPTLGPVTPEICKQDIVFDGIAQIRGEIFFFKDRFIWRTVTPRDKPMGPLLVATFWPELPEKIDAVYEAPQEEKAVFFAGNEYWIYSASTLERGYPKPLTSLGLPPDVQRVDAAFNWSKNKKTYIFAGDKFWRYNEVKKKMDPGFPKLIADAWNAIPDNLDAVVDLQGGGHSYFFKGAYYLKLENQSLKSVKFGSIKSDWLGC

[5] = target: T3, Recombinant Human CHO Stromelysin (MMP-3) (Homo sapiens, UniProt P08254); assay: P218 quenched fluorescence (microfluorometric profiling) assay, MMP-3; format: biochemical
T3 construct: made in house; host or cells: CHO cells
From the text: P218 is a synthetic substrate containing a 4-acetyl-7-methoxycoumarin (MCA) group in the N-terminal position and a 3-[2, 4-dinitrophenyl]-L-2,3-diaminopropionyl (DPA) group internally.
The reaction was stopped by addition of soybean trypsin inhibitor (SBTI; 5:1 w/w to trypsin concentration). This activation protocol results in the formation of 45 kDa active MMP-3, which still contains the C-terminal portion of the enzyme.
Microfluorometric Reaction Buffer (MRB): Dilution of test compounds, enzymes, and P218 substrate for the microfluorometric assay were made in microfluorometric reaction buffer consisting of 50 mM 2-(N-morpholino)ethanesulfonic acid (MES) at pH 6.5 with 10 mM CaCl2, 150 mM NaCl, 0.005% Brij-35 and 1% DMSO.
MMP Microfluorometric Profiling Assay. The assay is done with a final substrate concentration of 6 μM P218 and approximately 0.5 to 0.8 nM MMP with variable drug concentrations. The Hamilton is programmed to serially dilute up to 11 compounds from a 2.5 mM stock (100% DMSO) to 10× the final compounds concentrations in the assay. Initially, the instrument delivers various amounts of microfluoromentric reaction buffer (MRB) to a 96 tube rack of 1 ml Marsh dilution tubes. The instrument then picks up 20 μl of inhibitor (2.5 mM) from the sample rack and mixes it with a buffer in row A of the Marsh rack, resulting in a 50 μM drug concentration. The inhibitors are then serially diluted to 10, 5, 1, 0.2, 0.05 and 0.01 μM. […] The instrument re-mixes and loads 14.5 μl of diluted compound from rows A to G in the Marsh rack to corresponding rows in the microtiter plate. (Row H represents the "background" row and 39.5 μl of MRB is delivered in placed of drug or enzyme). […] (The enzyme reservoir is pretreated with 1% BSA in 50 mM Tris, pH 7.5 containing 150 mM NaCl for 1 hour at room temp., followed by extensive H2 O washing and drying at room temp.).
IC50 and Ki Determination in Microfluorometric Assay: Data generated on the Cytofluor II is copied from an exported ".CSV" file to a master Excel spreadsheet. Data from several different MMPs (one 96 well plate per MMP) were calculated simultaneously. The percent inhibition is determination for each drug concentration by comparing the amount of hydrolysis (fluorescence units generated over 25 minutes of hydrolysis) of wells containing compound with the "enzyme only" wells in column 1.

[6] = P218 6 μM, pH 6.5, 25 min, 37° C., read-out: MMP-9 Ki
[7] = P218 6 μM, pH 6.5, 25 min, 37° C., read-out: MMP-3 Ki
[8] = P218 6 μM, pH 6.5, 25 min, 37° C., read-out: MMP-2 Ki

T3 sequence (P08254 100-477): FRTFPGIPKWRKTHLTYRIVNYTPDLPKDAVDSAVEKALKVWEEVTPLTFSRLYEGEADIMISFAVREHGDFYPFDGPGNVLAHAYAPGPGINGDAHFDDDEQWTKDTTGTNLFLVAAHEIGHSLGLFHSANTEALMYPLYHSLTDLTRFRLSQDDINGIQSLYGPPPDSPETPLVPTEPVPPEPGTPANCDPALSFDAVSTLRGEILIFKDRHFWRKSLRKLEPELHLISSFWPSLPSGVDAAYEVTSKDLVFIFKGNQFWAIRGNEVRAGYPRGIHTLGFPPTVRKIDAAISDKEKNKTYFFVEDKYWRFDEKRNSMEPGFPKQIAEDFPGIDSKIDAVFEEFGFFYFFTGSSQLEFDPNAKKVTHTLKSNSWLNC
T1 sequence (P14780 107-707 limits assumed): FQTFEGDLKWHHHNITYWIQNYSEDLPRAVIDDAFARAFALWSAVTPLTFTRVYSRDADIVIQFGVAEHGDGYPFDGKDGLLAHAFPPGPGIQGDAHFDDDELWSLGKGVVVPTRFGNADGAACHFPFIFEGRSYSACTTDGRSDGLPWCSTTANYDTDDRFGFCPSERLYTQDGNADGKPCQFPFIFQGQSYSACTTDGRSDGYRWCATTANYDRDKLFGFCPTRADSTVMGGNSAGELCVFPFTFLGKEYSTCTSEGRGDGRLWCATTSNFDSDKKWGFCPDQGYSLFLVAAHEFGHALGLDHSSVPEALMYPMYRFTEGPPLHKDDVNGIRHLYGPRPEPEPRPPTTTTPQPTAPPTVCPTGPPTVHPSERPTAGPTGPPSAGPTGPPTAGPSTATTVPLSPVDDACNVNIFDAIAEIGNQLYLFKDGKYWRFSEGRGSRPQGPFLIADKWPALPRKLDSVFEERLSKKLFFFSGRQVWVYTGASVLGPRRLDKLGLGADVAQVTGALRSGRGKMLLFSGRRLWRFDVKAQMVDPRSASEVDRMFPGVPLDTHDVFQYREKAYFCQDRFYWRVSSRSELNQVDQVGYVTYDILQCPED

Structure (SMILES)	Ki [3, 6] [nM]	Ki [5, 7] [nM]	Ki [4, 8] [nM]	further results
CNC(=O)[C@H](Cc1ccccc1)NC(=O)[C@H](CC(C)C)[C@H](CSc1cccs1)C(=O)NO [batimastat]	–	–	–	human colon tumor growth and spread (human colon tumor): inhibits human colon tumor growth and spread; survival of mice bearing human ovarian carcinoma xenografts [1]: prolongs the survival
CC(CC(=O)c1ccc(-c2ccccc2)cc1)C(=O)O (centres unmarked) [XLVII]	–	–	–	activity as anti-inflammatory analgesic agents [2]: inactive
O=C(CC(CCc1ccccc1C(=O)N1CCCCC1)C(=O)O)c1ccc(-c2ccc(OCc3ccccc3)cc2)cc1 (centres unmarked) [Compound XXXII]	167	14.8	–	Ki [4]: 13 nM
O=C(O)CC(C(=O)c1ccc(-c2ccccc2)cc1)c1ccccc1 (centres unmarked) [LXXVII]	–	–	–	activity as anti-inflammatory analgesic agents [2]: inactive
O=C(CC(CCc1ccc(C(=O)N2CCOCC2)cc1)C(=O)O)c1ccc(-c2ccc(Cl)cc2)cc1 (stereo not drawn) [XVII, 4'-chloro-α-[2-[4-(4-morpholinylcarbonyl)phenyl]ethyl]-γ-oxo-[1,1'-biphenyl]-4-butanoic acid]	–	–	53.6	Ki [3]: 606 nM; Ki [5]: 236 nM
O=C(CC(C(=O)O)c1ccccc1)c1ccc(-c2ccccc2)cc1 (centres unmarked) [XLIX]	–	–	–	activity as anti-inflammatory analgesic agents [2]: inactive
O=C(CC(CCc1cccc(C(=O)NCCN2CCOCC2)c1)C(=O)O)c1ccc(-c2ccc(Cl)cc2)cc1 (stereo not drawn) [XXVII, 4'-chloro-α-[2-[3-[[[2-(-morpholinyl)ethyl]amino]carbonyl]phenyl]ethyl]-γ-oxo-[1,1'-biphenyl]-4-butanoic acid]	786	353	–	Ki [4]: 48 nM
O=C(CC(CCc1ccccc1C(=O)NCCN1CCOCC1)C(=O)O)c1ccc(-c2ccc(Cl)cc2)cc1 (stereo not drawn) [Compound XXV, 4'-chloro-α-[2 [2-[[[2-(4-morpholinyl)ethyl]amino]carbonyl]phenyl]ethyl]-γ-oxo-[1,1'-biphenyl]-4-butanoic acid]	744	371	51.4	–
CCOC(=O)CCNC(=O)c1ccccc1CCC(CC(=O)c1ccc(-c2ccc(Cl)cc2)cc1)C(=O)O (centres unmarked) [VII]	–	–	–	Ki [3]: 478 nM; Ki [4]: 27.1 nM; Ki [5]: 131 nM
O=C(CC(CCc1cccc(C(=O)N2CCCCC2)c1)C(=O)O)c1ccc(-c2ccc(Cl)cc2)cc1 (stereo not drawn) [XI, 4'-chloro-γ-oxo-α-[2-[3-(1-piperidinylcarbonyl)phenyl]ethyl]-[1,1'-biphenyl]-4-butanoic acid]	58.1	34.4	10.3	–
O=C(O)CCNC(=O)c1cccc(CCC(CC(=O)c2ccc(-c3ccc(Cl)cc3)cc2)C(=O)O)c1 (stereo not drawn) [Compound XXVI, α-[2-[3-[[(2-carboxyethyl)amino]carbonyl]phenyl]ethyl]-4'-chloro-γ-oxo-[1,1'-biphenyl]-4-butanoic acid]	706	178	76.6	–
O=C(CC(CCc1ccccc1C(=O)N1CCOCC1)C(=O)O)c1ccc(-c2ccc(Cl)cc2)cc1 (centres unmarked) [II]	–	–	12.1	Ki [3]: 323 nM; Ki [5]: 122 nM
O=C(CC(CCc1ccc(C(=O)NCCN2CCOCC2)cc1)C(=O)O)c1ccc(-c2ccc(Cl)cc2)cc1 (centres unmarked) [XXIX]	–	–	81.4	Ki ([3]; read-out: MMP-9 Ki, P218 6 μM, pH 6.5, 25 min, 37° C.): 449 nM; Ki ([5]; read-out: MMP-3 Ki, P218 6 μM, pH 6.5, 25 min, 37° C.): 465 nM
